{"source": "patent US8735434B2", "about": "“Compounds as cannabinoid receptor ligands” (priority 2007, dated 2014)", "origin": "cited, not measured here", "key": {"[1]": {"test_system": "animal models", "conditions": "acute thermal pain, persistent pain, inflammatory pain, neuropathic pain"}, "[2]": {"test_system": "rat", "conditions": "rat formalin model of persistent pain"}, "[3]": {"test_system": "rodent models", "conditions": "neuropathic, incisional, chronic and acute inflammatory pain"}, "[4]": {"test_system": "microglial", "conditions": "in vitro"}, "[5]": {"test_system": "osteoclast"}, "[6]": {"test_system": "mice", "conditions": "model for post-menopausal osteoporosis"}, "[7]": {"test_system": "apolipoprotein E knockout mice"}}, "data": [{"compound": "CN1CCCCC1Cn1cc(C(=O)c2cc([N+](=O)[O-])ccc2I)c2ccccc21", "note": "(stereo not drawn) [AM-1241]", "values": [{"measurement": "analgesic efficacy", "setting": "[1]", "value": "robust analgesic efficacy"}]}, {"compound": "CCCCCCC(C)(C)c1cc(OC)c([C@@H]2C=C(CO)[C@@H]3C[C@H]2C3(C)C)c(OC)c1", "note": "[HU-308]", "values": [{"measurement": "antinociceptive response", "setting": "[2]", "value": "elicits an antinociceptive response"}]}, {"compound": "COc1ccc2c(c1)c(CCN1CCOCC1)c(C)n2C(=O)c1cccc(Cl)c1Cl", "note": "[GW405833]", "values": [{"measurement": "efficacy in pain models", "setting": "[3]", "value": "efficacious"}]}, {"compound": "CCCC(C)(C)c1ccc2c(c1)OC(C)(C)[C@@H]1CC=C(C)C[C@@H]21", "note": "[JWH-133]", "values": [{"measurement": "effect on β-amyloid-induced microglial activation and neurotoxicity", "setting": "[4]", "value": "abrogated"}]}, {"compound": "SR144528", "values": [{"measurement": "block of the JWH-133 effects on microglial activation and neurotoxicity", "setting": "[4]; against JWH-133", "value": "can be blocked"}, {"measurement": "effect on osteoclast activity", "setting": "[5]", "value": "inhibit osteoclast activity"}, {"measurement": "effect on ovariectomy-induced bone loss", "setting": "[6]", "value": "reverse ovariectomy-induced bone loss"}, {"measurement": "inhibition of the THC effects on atherosclerotic lesions", "setting": "[7]; against THC", "value": "these effects were inhibited"}]}, {"compound": "(−)-Δ^9-Tetrahydrocannabinol [THC]", "values": [{"measurement": "progression of atherosclerotic lesions", "setting": "[7]; low doses", "value": "slowed the progression of atherosclerotic lesions"}]}]}
